How the values were obtained:
PI3Kα = PI3Kα (Homo sapiens, UniProt P42336); test: ADP-Glo Assay II, PI3Kα; type: biochemical; details: read-out: IC50 for inhibition of PI3Kα activity
Protocol: (§1) 1) The compound was diluted using Echo from Labcyte company, 50 nL of the compound was transferred into an assay plate, and centrifuged at a speed of 1000 rpm for 10 sec.
(§2) 2) A kinase/lipid substrate mixed solution and a kinase reaction buffer/lipid substrate mixed solution were prepared; the kinase/lipid substrate mixed solution was added into columns 3-24 of the assay plate, 3 μL per well; the kinase reaction buffer/lipid substrate mixed solution was added into columns 1-2 of the assay plat, 3 μL per well; and the plate was centrifuged at a speed of 1000 rpm for 10 sec.
(§3) 3) An ATP solution was prepared, and added into the assay plate, 2 μL per well; the plate was centrifuged at a speed of 1000 rpm for 10 sec, shaken and mixed in 2nd gear mode on a plate shaker for 1 min, further centrifuged at a speed of 1000 rpm for 10 sec, and incubated for 120 min at 23° C. […]
(§4) 5) A kinase detection reagent was prepared, added into the assay plate, 10 μL per well; the plate was centrifuged at a speed of 1000 rpm for 10 sec, shaken and mixed in 2nd gear mode on a plate shaker for 1 min, further centrifuged at a speed of 1000 rpm for 10 sec, incubated for 30 min at 23° C.; and then read on the multi-marker detector Envision.
(§5) IC50 results were analyzed by XLfit5 (Formula 205) of IDBS company.

PI3Kβ = PI3Kβ (Homo sapiens, UniProt P42338); test: ADP-Glo Assay II, PI3Kβ; type: biochemical; details: read-out: IC50 for inhibition of PI3Kβ activity
PI3Kβ, sequence (P42338 whole entry): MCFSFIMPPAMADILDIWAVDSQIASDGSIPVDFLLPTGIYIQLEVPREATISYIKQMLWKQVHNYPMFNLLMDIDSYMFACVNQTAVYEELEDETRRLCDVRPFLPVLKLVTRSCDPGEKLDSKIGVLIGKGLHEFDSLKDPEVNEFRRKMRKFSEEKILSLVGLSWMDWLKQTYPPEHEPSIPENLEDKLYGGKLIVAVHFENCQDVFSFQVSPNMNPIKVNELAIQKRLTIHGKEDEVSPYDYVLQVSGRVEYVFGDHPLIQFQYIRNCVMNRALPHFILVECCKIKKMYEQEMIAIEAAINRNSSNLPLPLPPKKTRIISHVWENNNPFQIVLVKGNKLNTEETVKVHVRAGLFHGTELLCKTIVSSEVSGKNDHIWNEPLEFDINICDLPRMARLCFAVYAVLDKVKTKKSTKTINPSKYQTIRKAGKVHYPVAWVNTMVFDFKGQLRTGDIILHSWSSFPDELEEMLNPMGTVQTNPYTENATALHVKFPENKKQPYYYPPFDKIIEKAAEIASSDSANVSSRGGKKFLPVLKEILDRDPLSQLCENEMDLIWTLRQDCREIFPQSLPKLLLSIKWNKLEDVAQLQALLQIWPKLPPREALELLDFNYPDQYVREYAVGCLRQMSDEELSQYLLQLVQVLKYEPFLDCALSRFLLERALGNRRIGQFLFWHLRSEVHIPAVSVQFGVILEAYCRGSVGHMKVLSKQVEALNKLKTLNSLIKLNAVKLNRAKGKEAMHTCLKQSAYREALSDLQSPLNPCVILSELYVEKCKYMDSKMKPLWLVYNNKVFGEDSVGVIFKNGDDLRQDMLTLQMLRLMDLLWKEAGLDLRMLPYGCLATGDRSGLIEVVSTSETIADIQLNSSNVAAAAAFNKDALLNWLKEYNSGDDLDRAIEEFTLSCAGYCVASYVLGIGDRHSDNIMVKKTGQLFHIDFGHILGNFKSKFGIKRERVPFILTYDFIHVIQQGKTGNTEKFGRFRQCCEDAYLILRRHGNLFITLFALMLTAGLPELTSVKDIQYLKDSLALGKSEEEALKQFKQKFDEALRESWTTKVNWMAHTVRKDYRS
PI3Kβ, sequence (P27986 whole entry partner): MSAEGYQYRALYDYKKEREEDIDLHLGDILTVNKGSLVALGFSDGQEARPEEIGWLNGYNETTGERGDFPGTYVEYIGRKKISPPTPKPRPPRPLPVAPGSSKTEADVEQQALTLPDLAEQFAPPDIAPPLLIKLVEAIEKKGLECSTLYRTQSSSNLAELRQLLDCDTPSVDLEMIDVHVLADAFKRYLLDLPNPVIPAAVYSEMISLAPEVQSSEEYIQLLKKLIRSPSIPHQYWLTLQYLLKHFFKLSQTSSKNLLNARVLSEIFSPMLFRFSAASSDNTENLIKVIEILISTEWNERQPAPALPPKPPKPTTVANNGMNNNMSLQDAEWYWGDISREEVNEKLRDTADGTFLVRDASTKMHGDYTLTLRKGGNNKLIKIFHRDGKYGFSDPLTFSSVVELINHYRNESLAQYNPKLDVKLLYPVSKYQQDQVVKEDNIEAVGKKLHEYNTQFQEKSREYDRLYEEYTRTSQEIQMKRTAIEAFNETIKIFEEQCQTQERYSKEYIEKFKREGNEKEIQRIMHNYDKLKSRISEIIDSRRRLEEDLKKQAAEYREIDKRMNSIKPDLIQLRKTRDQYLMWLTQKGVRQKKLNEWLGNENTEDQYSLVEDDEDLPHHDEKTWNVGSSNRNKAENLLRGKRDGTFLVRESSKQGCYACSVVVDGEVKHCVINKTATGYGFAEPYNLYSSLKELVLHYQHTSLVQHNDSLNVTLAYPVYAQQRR
Protocol: as §1, §2, §3, §4, §5

[1] = system: human gastric cancer ST-02-0013; test: In vivo pharmacodynamics, subcutaneous xenograft tumor model of human gastric cancer ST-02-0013; set-up: species or system BALB/c nude mice
Protocol: The studies were conducted to examine if the test drugs have in vivo efficacy in the human colon cancer CO-04-0032 animal model and the gastric cancer ST-02-0013 animal model. The descriptions about the animal feeding, feed ingredients, experimental observation, experimental indexes, experimental termination, as well as data analysis in the tests were as follows:
Animal Grouping: The animals were weighed and the tumor volume was measured prior to administration. The animals were randomly grouped according to tumor volume (randomized block design).
Experimental Indexes: The experimental indexes were used to examine whether tumor growth is inhibited, delayed or cured. Tumor diameter was measured twice a week with a vernier caliper. The tumor volume was calculated by the formula: V=0.5a×b^2, wherein a and b represent the long diameter and short diameter of a tumor, respectively. Tumor growth inhibition (TGI) of a compound was evaluated with T-C (day) and T/C (%). […]
Data Analysis: One-way ANOVA was used for comparison of three or more groups. […] All data was analyzed using SPSS 17.0. p<0.05 indicated a significant difference. […]

PI3Kα, sequence (P42336 whole entry): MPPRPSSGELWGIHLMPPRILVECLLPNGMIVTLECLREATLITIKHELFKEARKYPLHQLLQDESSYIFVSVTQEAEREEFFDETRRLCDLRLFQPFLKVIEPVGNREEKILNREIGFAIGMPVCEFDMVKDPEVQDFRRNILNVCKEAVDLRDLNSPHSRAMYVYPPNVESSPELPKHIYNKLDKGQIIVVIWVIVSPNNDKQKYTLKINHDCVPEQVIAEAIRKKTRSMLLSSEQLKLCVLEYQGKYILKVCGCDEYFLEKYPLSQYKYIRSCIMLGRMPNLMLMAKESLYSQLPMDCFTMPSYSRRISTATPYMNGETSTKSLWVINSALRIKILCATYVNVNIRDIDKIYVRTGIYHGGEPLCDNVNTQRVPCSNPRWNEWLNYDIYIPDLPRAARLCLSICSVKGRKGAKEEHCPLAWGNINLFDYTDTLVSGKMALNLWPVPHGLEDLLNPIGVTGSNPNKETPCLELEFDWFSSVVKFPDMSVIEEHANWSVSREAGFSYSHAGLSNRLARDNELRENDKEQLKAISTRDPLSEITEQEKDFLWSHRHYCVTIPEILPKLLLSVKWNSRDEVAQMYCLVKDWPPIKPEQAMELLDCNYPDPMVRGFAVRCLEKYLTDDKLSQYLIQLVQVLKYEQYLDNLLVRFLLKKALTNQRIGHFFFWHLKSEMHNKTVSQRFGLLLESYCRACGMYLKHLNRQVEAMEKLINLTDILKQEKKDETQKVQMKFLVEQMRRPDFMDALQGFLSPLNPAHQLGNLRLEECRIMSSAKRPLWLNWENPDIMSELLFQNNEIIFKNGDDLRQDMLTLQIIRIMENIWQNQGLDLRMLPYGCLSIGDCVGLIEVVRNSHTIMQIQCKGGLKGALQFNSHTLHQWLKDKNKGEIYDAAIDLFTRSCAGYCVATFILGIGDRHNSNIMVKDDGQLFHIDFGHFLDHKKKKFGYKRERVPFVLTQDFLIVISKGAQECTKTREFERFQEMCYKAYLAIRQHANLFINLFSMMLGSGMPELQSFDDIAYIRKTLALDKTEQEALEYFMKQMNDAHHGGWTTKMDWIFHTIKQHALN
PI3Kα, sequence (P27986 whole entry partner): as the sequence (P27986 whole entry partner) above

- IC50 (PI3Kα): 0.6 ± 0.2 nM
- IC50 (PI3Kβ): 9.9 ± 2.7 nM
Compound: COc1ncc(-c2ccc3ncc(OCCN(C)C)c(=O)n3c2)cc1NS(=O)(=O)c1ccc(F)cc1Cl [Compound 1]
- increase in tumor volume ([1]; from day 15 to day 30 of the administration, ST-02-0013): almost no increase in tumor volume
- anti-tumor activity compared to the positive control drug BKM120 ([1]; gastric cancer ST-02-0013): more excellent anti-tumor activity

From US10479789B2, “Pyrido[1,2-A]pyrimidone analog, crystal form thereof, intermediate thereof and preparation method therefor” (Chia Tai Tianqing Pharmaceutical Group Co., Ltd., priority 2015, dated 2019)
